Here are results for two compounds from article PMC9496321, “6-Furopyridine Hexamethylene Amiloride Is a Non-Selective P2X7 Receptor Antagonist” (Biomolecules, 2022).

Molecules are shown by their SMILES.

One assay concerns the target T1, hP2X7 (Homo sapiens, UniProt Q99572).
T1 construct: expressed in transfected cells; host or cells: HEK293 cells, stably transfected (HEK-hP2X7)
T1 sequence (Q99572 1-595): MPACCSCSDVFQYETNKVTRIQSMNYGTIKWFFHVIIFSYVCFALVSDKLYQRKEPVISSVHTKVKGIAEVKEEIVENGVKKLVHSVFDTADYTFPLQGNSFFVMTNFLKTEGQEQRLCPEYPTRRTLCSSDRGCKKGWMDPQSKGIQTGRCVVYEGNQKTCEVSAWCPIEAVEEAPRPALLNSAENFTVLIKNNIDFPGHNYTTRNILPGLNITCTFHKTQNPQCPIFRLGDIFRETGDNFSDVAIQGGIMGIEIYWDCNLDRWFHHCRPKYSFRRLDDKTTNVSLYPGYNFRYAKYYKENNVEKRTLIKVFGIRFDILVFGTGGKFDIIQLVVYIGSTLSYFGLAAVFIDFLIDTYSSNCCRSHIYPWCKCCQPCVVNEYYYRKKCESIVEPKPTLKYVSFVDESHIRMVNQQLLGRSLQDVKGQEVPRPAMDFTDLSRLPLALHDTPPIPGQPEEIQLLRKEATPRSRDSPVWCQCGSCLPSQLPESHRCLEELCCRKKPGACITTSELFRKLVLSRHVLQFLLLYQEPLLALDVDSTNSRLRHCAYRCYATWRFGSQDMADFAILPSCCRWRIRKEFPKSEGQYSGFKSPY
The assay is described as follows: Fura-2AM Ca2+ response assay in HEK-hP2X7 cells. The assay is classed as cell-based. The settings on record: for EC50: EC50 of ATP; for maximum ATP response, Ca2+: increasing ATP.

For assay [1], the system named is P2X7-mediated CD23 shedding. Nature of the assay: CD23 shedding assay in RPMI8226 cells. The assay is classed as cell-based, human. The method, then:
CD23 shedding from RPMI8226 cells was conducted as described, except using LDM. Briefly, 1 × 10^6 cells in LDM were added to individual tubes and pre-incubated in the absence or presence of compound (or vehicle) (37 °C, 15 min). […] Cells were stained in the absence or presence of anti-CD23 mAb with 7AAD (on ice, 30 min, dark), washed once with D-PBS and data were collected using an LSR Fortessa X-20 flow cytometer. CD23 MFI on live cells was determined using FlowJo, with CD23 expression defined as the difference in MFI between cells stained in the presence or absence of anti-CD23 mAb. ATP-induced shedding was normalised to the maximal ATP-induced response in each experiment.

Assay [2] concerns endogenous hP2Y receptors, including hP2Y1, hP2Y2 and hP2Y4. The assay is described as follows: Fura-2AM Ca2+ response assay in non-transfected HEK293 cells. Type of assay: cell-based, human. The procedure:
Ca^2+ response assays were conducted as described. Briefly, HEK293, HEK-hP2X7 or HEK-hP2X4 cells were harvested and plated in black, clear-bottom 96-well plates at 5 × 10^4 cells/well overnight (37 °C, 95% air/5% CO2). Cells were washed with extracellular Ca^2+ solution (ECS) (145 mM NaCl, 2 mM CaCl2, 5 mM KCl, 13 mM glucose and 10 mM HEPES, pH 7.4) and incubated with Fura-2AM loading buffer (2.5 μM Fura-2AM and 0.2% pluronic acid in ECS) (37 °C, 95% air/5% CO2, 30 min, dark). Loading buffer was removed; cells were washed once with ECS and incubated in ECS (37 °C, 95% air/5% CO2, 20 min, dark) to allow Fura-2AM de-esterification. Where indicated, cells were pre-incubated with compound or vehicle (DMSO) (37 °C, 30 min, dark). Fura-2 fluorescence at 510 nm was measured every 5 s using a FlexStation 3 (Molecular Devices, San Jose, CA, USA). […] Data was acquired using SoftMax Pro version 7.0 (Molecular Devices). Relative changes in intracellular Ca^2+ were calculated using the ratio of Fura-2AM fluorescence at 510 nm following excitation at 340 nm and 380 nm (F340nm/380nm). […] Ca^2+ responses over time were plotted in Prism software v8.4.2 (GraphPad Software, La Jolla, CA, USA). To determine relative P2X-mediated Ca^2+ responses, the area under the curve from 100 to 180 s was calculated with GraphPad Prism. To determine P2Y-mediated Ca^2+ responses the area under the curve from 30 to 100 s was calculated. In both cases, ATP-induced responses were calculated by subtracting the corresponding basal response. These responses were normalised to the maximal ATP-induced response within their respective experiment.

In another assay the target is T2, P2X7 (Homo sapiens, UniProt Q99572).
T2 sequence (Q99572 1-595): T1 sequence (Q99572 1-595)
Nature of the assay: Plate-based flow cytometric YO-PRO-1 dye uptake compound screen in RPMI8226 cells. Also noted: endogenous in cells; host or cells: RPMI8226 cells. The assay is classed as cell-based. Particulars: RPMI8226 cells, plate-based screen. The procedure:
RPMI8226 cells were washed thrice with low-divalent medium (LDM) (145 mM NaCl, 2 mM KCl, 0.2 mM CaCl2, 13 mM D-glucose and 10 mM HEPES, pH 7.5) and 1 × 10^5 cells were added to each well of a 96-well flat-bottomed plate. Amiloride derivatives, at 10 μM (final concentration 5 μM) or vehicle (DMSO) were added, and plates pre-incubated (37 °C, 15 min). […] Wells were washed twice with LDM (300× g, 5 min) and cells were resuspended in LDM. Data was acquired with an Attune NxT Flow Cytometer an Autosampler (Thermo Fisher Scientific). Mean fluorescent intensity (MFI) of YO-PRO-1^+ uptake was determined using FlowJo.
For orientation: Flow cytometry measures light scatter and fluorescence of single cells or particles in a stream.

For assay [3], the system named is hP2X7-mediated IL-1β release. Nature of the assay: Whole blood IL-1β release assay. The assay is classed as cell-based. The settings on record: 30 μM compound, 6 mM ATP, LPS-primed human whole blood. The procedure: Whole blood IL-1β release assays were conducted as described. Briefly, whole human blood was mixed with an equal volume of serum-free RPMI-1640 medium containing LPS (200 ng/mL), added to a flat-bottom 96-well plate and incubated (37 °C, 95% air/5% CO2, 105 min). Compounds (30 μM) or vehicle (DMSO) were added to respective wells and incubated (37 °C, 95% air/5% CO2, 15 min). […] Plates were centrifuged (700× g, 10 min) with the resulting supernatants collected and stored at −80 °C. hIL-1β concentrations were determined using a Human IL-1β ELISA (Thermo Fisher Scientific) according to the manufacturer’s instructions. Samples above the detection limit (7500 pg/mL) were set at 7500 pg/mL for statistical analysis.

A further assay deals with human uPA. Also noted: method as in PMID 33804289. Particulars: cited from earlier work.

In the case of `Nc1ncnc2c1ncn2[C@@H]1O[C@H](COP(=O)(O)OP(=O)(O)OP(=O)(O)O)[C@@H](O)[C@H]1O` [ATP, adenosine 5′-triphosphate], the half-maximal effective concentration (EC50) at hP2X7 (Ca2+ response, HEK-hP2X7 cells, no antagonist (Figure 2F), AUC 100-180 s) is 722 ± 76 µM; at hP2X7 (Ca2+ response, in presence of 0.3 μM 6-FPHMA) it was 526 ± 131 µM; at hP2X7 (Ca2+ response, in presence of 3 μM 6-FPHMA), 857 ± 317 µM; on hP2X7 (Ca2+ response, in presence of 30 μM 6-FPHMA), 691 ± 151 µM; at hP2X7 (Ca2+ response, pre-incubated with DMSO vehicle (Figure 2H)), 526 ± 127 µM; in assay [1] (Homo sapiens, RPMI-8226, read-out: EC50 of ATP, CD23 shedding, RPMI8226 cells) it was 112 ± 28 µM. Besides, the EC50 is 2.5 ± 1.01 µM in assay [2] (read-out: EC50 of ATP, Ca2+ response, HEK293 cells, AUC 30-100 s) and roughly 250 µM on P2X7. Besides, in assay [1] (RPMI8226 cells), the “ATP concentration giving maximal CD23 shedding” value stood at 200 µM. Also, the “ATP concentration giving maximum Ca2+ response” value in assay [2] (HEK293 cells) worked out at 300 µM.
As for `N=C(N)NC(=O)c1nc(-c2cc3cnccc3o2)c(N2CCCCCC2)nc1N` [6-FPHMA, 6-furopyridine-substituted 5-(N,N-hexamethylene) amiloride], the “maximum ATP response, Ca2+” value at hP2X7 (0.3 μM 6-FPHMA) came out at 54 ± 7%; on hP2X7 (3 μM 6-FPHMA), 43 ± 6%; at hP2X7 (30 μM 6-FPHMA), 5 ± 1%. For the same compound, the “blockade of hP2X7-mediated Ca2+ responses” value at hP2X7 (30 μM compound, 720 μM ATP) came out at 100%. The mode of inhibition result on hP2X7 (Ca2+ response, HEK-hP2X7 cells) is recorded as “non-competitive”. For the same compound, the IC50 at hP2X7 (read-out: IC50, hP2X7-mediated Ca2+ responses) came to 0.46 ± 0.14 µM; in assay [1] (Homo sapiens, RPMI-8226, read-out: IC50, ATP-induced CD23 shedding), 2.3 ± 0.5 µM; in assay [2] (2.5 μM ATP, AUC 30-100 s, read-out: IC50, endogenous hP2Y-mediated Ca2+ responses), 0.33 ± 0.13 µM. Further, the “reduction of ATP-induced IL-1β compared to vehicle control” value in assay [3] is reported as 56 ± 15%. In addition, the “blockade of ATP-induced CD23 shedding” value in assay [1] (30 μM compound, 200 μM ATP) is given as 97%. Besides, the “inhibition of hP2Y-mediated Ca2+ responses” value in assay [2] (30 μM compound, 2.5 μM ATP) amounted to 97%. Moreover, the “inhibition of human uPA” value in the assay with human uPA is recorded as “inhibit”.

Usually EC50 stands for the concentration giving half of the maximal effect. For orientation: IC50 means the midpoint of a concentration-inhibition curve.
